Source: PubChem BioAssay AID248 (DTP/NCI, 2004)
“And” between values parts separate entries of the source, which are not always exact repeats. Equal values may be shown once. Toxic doses and inconclusive results are not listed. Rule as the data show it: active = T/C of 150% or more; inactive = T/C below 125%.

Test system: L1210 leukemia ip in BDF1 mice, survival T/C
Test: NCI In Vivo Anticancer Drug Screen. Data for tumor model L1210 Leukemia (intraperitoneal) in B6D2F1 (BDF1) mice
Settings: endpoint: mean survival time, higher = longer survival
How it was run: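 Ratio derived from survival: compound-dosed mice over vehicle-dosed mice, all bearing a transplantable tumor.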

[1] = dose: 100.0 mg/kg/injection, schedule: Q01DX009 (ip), vehicle: Klucel (hydroxypropylcellulose) (HPC)
[2] = dose: 200.0 mg/kg/injection, schedule: Q01DX009 (ip), vehicle: Klucel (hydroxypropylcellulose) (HPC)
[3] = dose: 400.0 mg/kg/injection, schedule: Q01DX009 (ip), vehicle: Klucel (hydroxypropylcellulose) (HPC)
[4] = dose: 100.0 mg/kg/injection, schedule: Q04DX003 (ip), vehicle: saline
[5] = dose: 200.0 mg/kg/injection, schedule: Q04DX003 (ip), vehicle: saline
[6] = dose: 50.0 mg/kg/injection, schedule: Q01DX001 (ip), vehicle: saline
[7] = dose: 100.0 mg/kg/injection, schedule: Q01DX001 (ip), vehicle: saline
[8] = dose: 200.0 mg/kg/injection, schedule: Q01DX001 (ip), vehicle: saline
[9] = dose: 100.0 mg/kg/injection, schedule: Q01DX009 (ip), vehicle: saline
[10] = dose: 400.0 mg/kg/injection, schedule: Q04DX003 (ip), vehicle: saline

Measured: T/C

COC(=O)c1coc(C(=O)N2CCCC2)c1C(=O)O
inactive: dose: 75.0 mg/kg/injection, schedule: Q04DX003 (ip), vehicle: Klucel (hydroxypropylcellulose) (HPC) 93 % of control | dose: 100.0 mg/kg/injection, schedule: Q01DX001 (ip), vehicle: Klucel (hydroxypropylcellulose) (HPC) 103 % of control | dose: 150.0 mg/kg/injection, schedule: Q04DX003 (ip), vehicle: Klucel (hydroxypropylcellulose) (HPC) 105 % of control | dose: 200.0 mg/kg/injection, schedule: Q01DX001 (ip), vehicle: Klucel (hydroxypropylcellulose) (HPC) 101 % of control | dose: 300.0 mg/kg/injection, schedule: Q04DX003 (ip), vehicle: Klucel (hydroxypropylcellulose) (HPC) 98 % of control | dose: 400.0 mg/kg/injection, schedule: Q01DX001 (ip), vehicle: Klucel (hydroxypropylcellulose) (HPC) 103 % of control

CCOC(=O)c1ccc(OC(=O)Nc2ccc(OC)cc2OC)cc1
inactive: [1] 101 % of control

O=C(OCC1OCC(OC(=O)c2ccccc2)C1OC(=O)c1ccccc1)c1ccccc1 (stereo not drawn)
inactive: dose: 100.0 mg/kg/injection, schedule: Q01DX001 (ip), vehicle: saline with Tween-80 92 % of control | dose: 200.0 mg/kg/injection, schedule: Q01DX001 (ip), vehicle: saline with Tween-80 110 % of control

C#CCC1CCCC/C1=N\Nc1ccc([N+](=O)[O-])cc1[N+](=O)[O-] (stereo not drawn)
inactive: dose: 100.0 mg/kg/injection, schedule: Q04DX002 (ip), vehicle: Klucel (hydroxypropylcellulose) (HPC) 96 % of control | dose: 200.0 mg/kg/injection, schedule: Q04DX002 (ip), vehicle: Klucel (hydroxypropylcellulose) (HPC) 103 % of control | dose: 400.0 mg/kg/injection, schedule: Q04DX002 (ip), vehicle: Klucel (hydroxypropylcellulose) (HPC) 92 % of control

CC(C(O)c1ccccc1)[n+]1ccccc1 (stereo not drawn)
inactive: dose: 75.0 mg/kg/injection, schedule: Q01DX001 (ip), vehicle: saline 102 % of control

Nc1ccc(/C=C/c2ccncc2)cc1
inactive: [1] 92 % of control | dose: 100.0 mg/kg/injection, schedule: Q04DX003 (ip), vehicle: Klucel (hydroxypropylcellulose) (HPC) 101 % of control | [2] 92 % of control | dose: 200.0 mg/kg/injection, schedule: Q04DX003 (ip), vehicle: Klucel (hydroxypropylcellulose) (HPC) 104 % of control | [3] 102 % of control | dose: 400.0 mg/kg/injection, schedule: Q04DX003 (ip), vehicle: Klucel (hydroxypropylcellulose) (HPC) 96 % of control

CN=C1N[N+]2=C(C)CCCC2S1 (stereo not drawn)
inactive: [4] 95 % of control | [5] 95 % of control

CCCCCC(C)(O)CCC (stereo not drawn)
inactive: [6] 93 % of control | [7] 93 % of control | [8] 93 % of control

CC(C)(C)NC(=O)Oc1ccc(Br)cc1Br
inactive: [9] 104 % of control | [4] 88 % of control | dose: 200.0 mg/kg/injection, schedule: Q01DX009 (ip), vehicle: saline 98 % of control | [5] 92 % of control | dose: 400.0 mg/kg/injection, schedule: Q01DX009 (ip), vehicle: saline 104 % of control | [10] 87 % of control

COC(OC)C1OC(c2ccccc2)OC2COC(c3ccccc3)OC21 (stereo not drawn)
inactive: dose: 12.5 mg/kg/injection, schedule: Q01DX009 (ip), vehicle: saline with Tween-80 92 % of control | dose: 12.5 mg/kg/injection, schedule: Q04DX003 (ip), vehicle: saline with Tween-80 93 % of control | dose: 25.0 mg/kg/injection, schedule: Q01DX009 (ip), vehicle: saline with Tween-80 92 % of control | dose: 25.0 mg/kg/injection, schedule: Q04DX003 (ip), vehicle: saline with Tween-80 92 % of control | dose: 50.0 mg/kg/injection, schedule: Q01DX009 (ip), vehicle: saline with Tween-80 92 % of control | dose: 50.0 mg/kg/injection, schedule: Q04DX003 (ip), vehicle: saline with Tween-80 92 % of control

CC(=O)NCCOc1ccc(N)cc1
inactive: [4] 104 % of control | [5] 98 % of control | [10] 98 % of control

CC1OCOC2COCOC2C1O (stereo not drawn)
inactive: [1] 92 % of control | [2] 94 % of control | [3] 97 % of control

COC1=C(Br)C(=O)C(Br)=C(OC)C1=O
inactive: dose: 100.0 mg/kg/injection, schedule: Q04DX002 (ip), vehicle: other 107 % of control | dose: 200.0 mg/kg/injection, schedule: Q04DX002 (ip), vehicle: other 96 % of control

C[N+](C)(C)CCS(=O)(=O)c1ccc(Cl)cc1
inactive: dose: 100.0 mg/kg/injection, schedule: Q04DX002 (ip), vehicle: saline 90 % of control

CN1CN(C)CN(C)C1
inactive: dose: 25.0 mg/kg/injection, schedule: Q01DX009 (ip), vehicle: saline 105 % of control | dose: 50.0 mg/kg/injection, schedule: Q01DX009 (ip), vehicle: saline 108 % of control | dose: 50.0 mg/kg/injection, schedule: Q04DX003 (ip), vehicle: saline 102 % of control | [7] 101 % of control | [9] 110 % of control | [4] 102 % of control and 107 % of control | [8] 92 % of control | dose: 400.0 mg/kg/injection, schedule: Q01DX001 (ip), vehicle: saline 97 % of control

O=[N+]([O-])c1ccc(-c2ccc([N+](=O)[O-])c(-c3ccccc3)c2)cc1
inactive: dose: 100.0 mg/kg/injection, schedule: Q04DX003 (ip), vehicle: saline with Tween-80 93 % of control | dose: 200.0 mg/kg/injection, schedule: Q04DX003 (ip), vehicle: saline with Tween-80 88 % of control

C1CCC(C2CCC(N3CCCCC3)CC2)CC1 (stereo not drawn)
inactive: dose: 12.5 mg/kg/injection, schedule: Q01DX001 (ip), vehicle: saline 106 % of control | dose: 25.0 mg/kg/injection, schedule: Q01DX001 (ip), vehicle: saline 101 % of control | [6] 101 % of control
